From patent US10160762B2, “6-alkyl dihydropyrazolopyrimidinone compounds as PDE2 inhibitors” (Merck Sharp & Dohme Corp., priority 2015, dated 2018)

Target: T1, human PDE2A1 (Homo sapiens, UniProt O00408)
T1 construct: GST; purchased BPS Bioscience (San Diego, Calif.) 60020; host or cells: insect cells
Assay: IMAP FP PDE assay, human PDE2A1
Assay type: biochemical
Conditions: Lab B; read-out: Human PDE2 Ki (nM) Lab B
Procedure, shortened: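 GST-tagged human PDE2A1 from insect cells; substrate 50 nM FAM-cAMP containing 1000 nM cGMP in Tris pH 7.2/MgCl2/DTT buffer, enzyme giving 20% conversion. 60 min at room temperature, IMAP binding reagent, fluorescence polarization read. Apparent Ki from FP readings using apparent KM 10,000 nM; ten-point 3-fold titrations.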

T1 sequence (O00408 1-920 isoform O00408-2): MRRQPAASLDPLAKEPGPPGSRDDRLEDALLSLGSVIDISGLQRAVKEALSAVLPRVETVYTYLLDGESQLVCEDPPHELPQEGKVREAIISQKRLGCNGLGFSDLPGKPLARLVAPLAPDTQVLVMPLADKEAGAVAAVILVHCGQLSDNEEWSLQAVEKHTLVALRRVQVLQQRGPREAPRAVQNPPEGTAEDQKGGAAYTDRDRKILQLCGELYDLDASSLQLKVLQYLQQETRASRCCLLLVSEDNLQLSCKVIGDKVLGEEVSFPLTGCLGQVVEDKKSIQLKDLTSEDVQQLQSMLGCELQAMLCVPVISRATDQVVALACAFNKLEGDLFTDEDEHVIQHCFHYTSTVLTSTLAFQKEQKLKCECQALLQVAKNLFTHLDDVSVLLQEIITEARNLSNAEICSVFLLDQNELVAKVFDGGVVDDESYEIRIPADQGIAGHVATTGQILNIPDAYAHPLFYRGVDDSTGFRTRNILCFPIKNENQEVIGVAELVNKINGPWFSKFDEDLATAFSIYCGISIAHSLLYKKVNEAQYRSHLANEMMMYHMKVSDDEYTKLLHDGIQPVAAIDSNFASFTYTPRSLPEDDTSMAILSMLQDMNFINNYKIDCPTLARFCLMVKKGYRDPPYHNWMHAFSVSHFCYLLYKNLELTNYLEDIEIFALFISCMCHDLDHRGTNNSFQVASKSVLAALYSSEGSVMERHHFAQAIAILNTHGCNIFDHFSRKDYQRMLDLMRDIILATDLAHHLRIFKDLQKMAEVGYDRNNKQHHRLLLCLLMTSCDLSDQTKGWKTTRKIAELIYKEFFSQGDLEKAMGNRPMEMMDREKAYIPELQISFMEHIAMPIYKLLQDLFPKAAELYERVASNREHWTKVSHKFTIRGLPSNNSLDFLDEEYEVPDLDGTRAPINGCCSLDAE

| SMILES | Ki |
| --- | --- |
| CC(c1ccc(C(F)(F)F)cc1)n1nc(-c2nnco2)c2c(=O)[nH]c(CC3CCCC3)nc21 (single isomer, unassigned) [Example 343, (S) or (R)-6-(Cyclopentylmethyl)-3-(1,3,4-oxadiazol-2-yl)-1-(1-(4-(trifluoromethyl)phenyl)ethyl)-1,5-dihydro-4H-pyrazolo[3,4-d] pyrimidin-4-one] | 299 nM |
| Cc1nc2c(c(CO)nn2C(C)c2ccc(C(F)(F)F)cc2I)c(=O)[nH]1 (single isomer, unassigned) [Example 140, (R)- or (S)-3-(Hydroxymethyl)-1-(1-(2-iodo-4-(trifluoromethyl-)phenyl)ethyl)-6-methyl-1,5-dihydro-4H-pyrazolo[3,4-d]pyrimidin-4-one] | 939 nM |
| Cc1nc2c(c(CC(F)(F)F)nn2C(C)c2ccc(OC(F)(F)F)cc2)c(=O)[nH]1 (single isomer, unassigned) [Example 66, (R)- or (S)-6-Methyl-3-(2,2,2-trifluoroethyl)-1-(1-(4-(trifluoromethoxy)phenyl)ethyl)-1H-pyrazolo[3,4-d]pyrimidin-4(5H)-one] | 327 nM |
| Cc1nc2c(c(CF)nn2C(c2ccc(OC(F)(F)F)cc2)C2CC2)c(=O)[nH]1 (single isomer, unassigned) [Example 225, (S)- or (R)-1-(Cyclopropyl(4-(trifluoromethoxy)phenyl)methyl)-3-(fluoromethyl)-6-methyl-1,5-dihydro-4H-pyrazolo[3,4-d]pyrimidin-4-one] | 4.6 nM |
| Cc1nc2c(c(CO)nn2C2CCc3cc(C(F)(F)F)ccc32)c(=O)[nH]1 (single isomer, unassigned) [Example 102, (R)- or (S)-3-(Hydroxymethyl)-6-methyl-1-(5-(trifluoromethyl)-2,3-dihydro-1H-inden-1-yl)-1H-pyrazolo[3,4-d]pyrimidin-4(5H)-one] | > 2960 nM |
| COCC(c1ccc(C(F)(F)F)cc1)n1nc(C(F)F)c2c(=O)[nH]c(C)nc21 (single isomer, unassigned) [Example 174, (S)- or (R)-3-(Difluoromethyl)-1-(2-methoxy-1-(4-(trifluoromethyl)phenyl)ethyl)-6-methyl-1H-pyrazolo[3,4-d]pyrimidin-4(5H)-one] | 278 nM |
| Cc1nc2c(c(CF)nn2C(c2ccc(OC(F)(F)F)c(F)c2)C2CC2)c(=O)[nH]1 (single isomer, unassigned) [Example 229, (S)- or (R)-1-(Cyclopropyl(3-fluoro-4-(trifluoromethoxy)phenyl)methyl)-3-(fluoromethyl)-6-methyl-1,5-dihydro-4H-pyrazolo[3,4-d]pyrimidin-4-one] | 2 nM |
| Cc1nc2c(c(C(F)F)nn2C(C)c2ccc(OC(F)F)cc2)c(=O)[nH]1 (single isomer, unassigned) [Example 181, (R)- or (S)-1-(1-(4-(Difluoromethoxy)phenyl)ethyl)-3-(difluoromethyl)-6-methyl-1H-pyrazolo[3,4-d]pyrimidin-4(5H)-one] | 82 nM |
| CC(c1ccc(C(F)(F)F)cc1)n1nc(C#N)c2c(=O)[nH]c(CC3CC3)nc21 (single isomer, unassigned) [Example 347] | 1030 nM |
| COCc1nc2c(c(C(F)F)nn2C(C)c2ccc(C(F)(F)F)cc2)c(=O)[nH]1 (single isomer, unassigned) [Example 188, (S)- or (R)-3-(Difluoro-methyl)-6-(methoxymethyl)-1-{1-[4-(trifluoromethyl)phenyl]ethyl}-1,5-dihydro-4H-pyrazolo-[3,4-d]pyrimidin-4-one] | 2.6 nM |
| Cc1nc2c(c(O)nn2[C@@H](C)c2ccc(C(F)(F)F)cc2)c(=O)[nH]1 [Example 329, (S)-3-Hydroxy-6-methyl-1-(1-(4-(trifluoromethyl)phenyl)ethyl)-1,5-dihydro-4H-pyrazolo[3,4-d]pyrimidin-4-one] | 2080 nM |
| CC(c1ccc(C(F)(F)F)cc1)n1nc(CO)c2c(=O)[nH]c(C3CCCO3)nc21 (single isomer, unassigned) [Example 312, (S,S)- or (R,S)- or (S,R)- or (R,R)-3-(Hydroxymethyl)-6-(tetrahydrofuran-2-yl)-1-(1-(4-(trifluoromethyl-)phenyl)ethyl)-1,5-dihydro-4H-pyrazolo[3,4-d]pyrimidin-4-one] | ~1860 nM |
| Cc1nc2c(c(CO)nn2C(C)c2ccc(C(C)(F)F)cc2)c(=O)[nH]1 (single isomer, unassigned) [Example 116, (R)- or (S)-1-(1-(4-(1,1-Difluoroethyl)phenyl)ethyl)-3-(hydroxymethyl)-6-methyl-1H-pyrazolo[3,4-d]pyrimidin-4(5H)-one] | 392 nM |
| Cc1nc2c(c(CC(F)(F)F)nn2C(c2ccc(C(F)(F)F)c(F)c2)C2(C)CC2)c(=O)[nH]1 (single isomer, unassigned) [Example 63, (S)- or (R)-1-((3-Fluoro-4-(trifluoromethyl)phenyl)(1-methylcyclopropyl)methyl)-6-methyl-3-(2,2,2-trifluoroethyl)-1H-pyrazolo[3,4-d]pyrimidin-4(5H)-one] | 45 nM |
| CC1CCC(Cc2nc3c(c(CO)nn3C(C)c3ccc(C(F)(F)F)cc3)c(=O)[nH]2)O1 (racemic) [Example 298, 3-(Hydroxymethyl)-6-[(5-methyltetrahydrofuran-2-yl)methyl]-1-{1-[4-(trifluoromethyl)phenyl]ethyl}-1,5-dihydro-4H-pyrazolo[3,4-d]pyrimidin-4-one] | 62 nM |
| Cc1nc2c(c(C(F)F)nn2C(C)c2ccc(C(F)(F)F)cc2F)c(=O)[nH]1 (single isomer, unassigned) [Example 185, (R)- or (S)-3-(Difluoro-methyl)-1-(1-(2-fluoro-4-(trifluoro-methyl)phenyl)-ethyl)-6-methyl-1H-pyrazolo[3,4-d]pyrimidin-4(5H)-one] | 303 nM |
| Cc1nc2c(c(Br)nn2C(C)c2ccc(C(F)(F)F)cc2)c(=O)[nH]1 (single isomer, unassigned) [Example 325] | 3.7 nM |
| CC(c1ccc(C(F)(F)F)cc1)n1nc(-c2nnco2)c2c(=O)[nH]c(CC3CC3)nc21 (single isomer, unassigned) [Example 340, (R)- or (S)-6-(Cyclopropylmethyl)-3-(1,3,4-oxadiazol-2-yl)-1-(1-(4-(trifluoromethyl)phenyl)ethyl)-1,5-dihydro-4H-pyrazolo[3,4-d] pyrimidin-4-one] | 2.2 nM |
| Cc1nc2c(c(CC(O)C(F)(F)F)nn2C(C)c2ccc(C(F)(F)F)cc2)c(=O)[nH]1 (single isomer, unassigned) [Example 242] | 434 nM |
| Cc1nc2c(c(CO)nn2C(C)c2ccc(OC(F)(F)F)cc2F)c(=O)[nH]1 (single isomer, unassigned) [Example 104, (R)- or (S)-1-(1-(2-Fluoro-4-(trifluoromethoxy)phenyl)ethyl)-3-(hydroxymethyl)-6-methyl-1H-pyrazolo[3,4-d]pyrimidin-4(5H)-one] | 162 nM |
| Cc1nc2c(c(CC(F)(F)F)nn2C(c2ccc(C(F)(F)F)c(F)c2)C2(C)CC2)c(=O)[nH]1 (single isomer, unassigned) [Example 62, (R)- or (S)-1-((3-Fluoro-4-(trifluoromethyl)phenyl)(1-methylcyclopropyl)methyl)-6-methyl-3-(2,2,2-trifluoroethyl)-1H-pyrazolo[3,4-d]pyrimidin-4(5H)-one] | 1100 nM |
| Cc1nc2c(c(CO)nn2C(C)c2c(F)cc(C(F)(F)F)cc2F)c(=O)[nH]1 (single isomer, unassigned) [Example 137] | 121 nM |
| Cc1nc2c(c(C(F)F)nn2C(C)c2ccc(C(F)(F)F)c(F)c2)c(=O)[nH]1 (single isomer, unassigned) [Example 168, (S)- or (R)-3-(Difluoromethyl)-1-(1-(3-fluoro-4-(trifluoromethyl)phenyl)ethyl)-6-methyl-1H-pyrazolo[3,4-d]pyrimidin-4(5H)-one] | 1.4 nM |
| Cc1nc2c(c(C(N)=O)nn2C(C)c2ccc(C(F)(F)F)cc2)c(=O)[nH]1 (single isomer, unassigned) [Example 257] | 115 nM |
| CC(C)Cc1nc2c(c(CO)nn2C(C)c2ccc(C(F)(F)F)cc2)c(=O)[nH]1 (single isomer, unassigned) [Example 306, (S)- or (R)-3-(Hydroxy-methyl)-6-isobutyl-1-(1-(4-(trifluoromethyl)phenyl)ethyl)-1,5-dihydro-4H-pyrazolo[3,4-d]pyrimidin-4-one] | 568 nM |
| Cc1nc2c(c(C(F)F)nn2C(C)c2ccc(SC(F)(F)F)cc2)c(=O)[nH]1 (single isomer, unassigned) [Example 180, (S)- or (R)-3-(Difluoromethyl)-6-methyl-1-(1-(4-(trifluoromethylthio)phenyl)ethyl)-1H-pyrazolo[3,4-d] pyrimidin-4(5H)-one] | 0.55 nM |
| Cc1nc2c(c(CO)nn2C(C)c2ccc(C(F)F)cc2)c(=O)[nH]1 (single isomer, unassigned) [Example 111, (S)- or (R)-1-(1-(4-(Difluoromethyl)phenyl)ethyl)-3-(hydroxymethyl)-6-methyl-1H-pyrazolo[3,4-d]pyrimidin-4(5H)-one] | 3.2 nM |
| Cc1nc2c(c(CO)nn2C(C)c2ccc(C(F)(F)F)cn2)c(=O)[nH]1 (single isomer, unassigned) [Example 151, (R)- or (S)-3-(Hydroxymethyl)-6-methyl-1-(1-(5-(trifluoromethyl)pyridin-2-yl)ethyl)-1H-pyrazolo[3,4-d]pyrimidin-4(5H)-one] | 25 nM |
| Cc1nc2c(c(CF)nn2C(C)c2ccc(CC(F)(F)F)cc2)c(=O)[nH]1 (single isomer, unassigned) [Example 210, (R)- or (S)-3-(Fluoromethyl)-6-methyl-1-(1-(4-(2,2,2-trifluoroethyl)phenyl)ethyl)-1H-pyrazolo[3,4-d]pyrimidin-4(5H)-one] | 75 nM |
| Cc1nc2c(c(CO)nn2C(C)c2ccc(SC(F)(F)F)cc2)c(=O)[nH]1 (single isomer, unassigned) [Example 22, (R)- or (S)-3-(Hydroxymethyl)-6-methyl-1-(1-(4-(trifluoromethylthio)phenyl)ethyl)-1H-pyrazolo[3,4-d]pyrimidin-4(5H)-one] | 125 nM |
